Test results as given in publication PMC5218480 (PLoS ONE, 2017).

Test system: MV-4-11 cells
Assay: Gene expression microarray analysis (Affymetrix PrimeView) and GSEA
Format: cell-based, human
Parameters: RFU PODN (11730768_x_at) / Fold change /veh PODN (11730768_x_at) / RFU LINC00158 (11744669_a_at) / Fold change /veh LINC00158 (11744669_a_at) / RFU DUSP10 (11751237_a_at) / Fold change /veh DUSP10 (11751237_a_at) / RFU ID3 (11757404_x_at) / Fold change /veh ID3 (11757404_x_at) / RFU PLEKHG5 (11737974_s_at) / Fold change /veh PLEKHG5 (11737974_s_at) / RFU LRRC4B (11730491_at) / Fold change /veh LRRC4B (11730491_at) / RFU GIMAP4 (11747438_a_at) / Fold change /veh GIMAP4 (11747438_a_at) / RFU KRT8 (11758183_x_at) / Fold change /veh KRT8 (11758183_x_at) / RFU CNN1 (11734310_a_at) / Fold change /veh CNN1 (11734310_a_at) / RFU VPS37D (11726825_at) / Fold change /veh VPS37D (11726825_at) / RFU C10orf10 (11716522_x_at) / Fold change /veh C10orf10 (11716522_x_at) / RFU KIR2DL2 /// KIR2DL4 /// KIR2DL5A /// KIR2DL5B /// KIR2DS1 /// KIR2DS2 /// KIR2DS3 /// KIR2DS4 /// KIR3DL3 /// KIR3DL3 /// KIR3DS1 (11738374_at) / Fold change /veh KIR2DL2 /// KIR2DL4 /// KIR2DL5A /// KIR2DL5B /// KIR2DS1 /// KIR2DS2 /// KIR2DS3 /// KIR2DS4 /// KIR3DL3 /// KIR3DL3 /// KIR3DS1 (11738374_at) / RFU C1QL1 (11718748_at) / Fold change /veh C1QL1 (11718748_at) / RFU TMPRSS4 (11747572_a_at) / Fold change /veh TMPRSS4 (11747572_a_at) / RFU HAMP (11756126_x_at) / Fold change /veh HAMP (11756126_x_at) / RFU RNFT2 (11725882_a_at) / Fold change /veh RNFT2 (11725882_a_at) / RFU NR4A2 (11747474_a_at) / Fold change /veh NR4A2 (11747474_a_at) / RFU ABCC12 (11746883_a_at) / Fold change /veh ABCC12 (11746883_a_at) / RFU TMEM136 (11760407_x_at) / Fold change /veh TMEM136 (11760407_x_at) / RFU CLDN22 /// WWC2 (11732394_at) / Fold change /veh CLDN22 /// WWC2 (11732394_at) / RFU HLA-DPB1 (11760878_x_at) / Fold change /veh HLA-DPB1 (11760878_x_at) / RFU SPINT1 (11716480_a_at) / Fold change /veh SPINT1 (11716480_a_at) / RFU GAP43 (11754022_s_at) / Fold change /veh GAP43 (11754022_s_at) / RFU A4GNT (11735810_at) / Fold change /veh A4GNT (11735810_at) / RFU PRB3 (11715151_x_at) / Fold change /veh PRB3 (11715151_x_at) / RFU TUBB4B (11761932_at) / Fold change /veh TUBB4B (11761932_at) / RFU CAPN14 (11732068_a_at) / Fold change /veh CAPN14 (11732068_a_at) / RFU TMCC2 (11721928_a_at) / Fold change /veh TMCC2 (11721928_a_at) / RFU IRGQ (11745062_a_at) / Fold change /veh IRGQ (11745062_a_at) / RFU FAM174B (11720279_a_at) / Fold change /veh FAM174B (11720279_a_at) / RFU TMPRSS4 (11748680_a_at) / Fold change /veh TMPRSS4 (11748680_a_at) / RFU FAM212B (11763350_a_at) / Fold change /veh FAM212B (11763350_a_at) / RFU PLEKHG5 (11743358_a_at) / Fold change /veh PLEKHG5 (11743358_a_at) / RFU ZSCAN30 (11745921_a_at) / Fold change /veh ZSCAN30 (11745921_a_at) / RFU CMKLR1 (11741424_a_at) / Fold change /veh CMKLR1 (11741424_a_at) / RFU LOC101060620 /// MAPK8IP1 (11723275_at) / Fold change /veh LOC101060620 /// MAPK8IP1 (11723275_at) / RFU SPTSSB (11747773_x_at) / Fold change /veh SPTSSB (11747773_x_at) / RFU PRSS12 (11739890_at) / Fold change /veh PRSS12 (11739890_at) / RFU BIN1 (11741810_x_at) / Fold change /veh BIN1 (11741810_x_at) / RFU WNT11 (11732464_a_at) / Fold change /veh WNT11 (11732464_a_at) / RFU C10orf10 (11716521_a_at) / Fold change /veh C10orf10 (11716521_a_at) / RFU C5orf56 (11738089_at) / Fold change /veh C5orf56 (11738089_at) / RFU CYB561 (11721691_x_at) / Fold change /veh CYB561 (11721691_x_at) / RFU ANKRD19P (11752326_a_at) / Fold change /veh ANKRD19P (11752326_a_at) / RFU OR2T12 /// OR2T33 /// OR2T8 (11738714_s_at) / Fold change /veh OR2T12 /// OR2T33 /// OR2T8 (11738714_s_at) / RFU VCAN (11748164_a_at) / Fold change /veh VCAN (11748164_a_at) / RFU JSRP1 (11732532_at) / Fold change /veh JSRP1 (11732532_at) / RFU KRTAP10-11 (11738290_x_at) / Fold change /veh KRTAP10-11 (11738290_x_at) / RFU MYO3A (11730013_a_at) / Fold change /veh MYO3A (11730013_a_at) / RFU EBF3 (11725865_a_at) / Fold change /veh EBF3 (11725865_a_at) / RFU CAMK2N1 (11719241_x_at) / Fold change /veh CAMK2N1 (11719241_x_at) / RFU C5orf56 (11738088_a_at) / Fold change /veh C5orf56 (11738088_a_at) / RFU OLFML3 (11715873_a_at) / Fold change /veh OLFML3 (11715873_a_at) / RFU LOC100653217 /// NTM (11731650_a_at) / Fold change /veh LOC100653217 /// NTM (11731650_a_at) / RFU MAPK11 (11762145_a_at) / Fold change /veh MAPK11 (11762145_a_at) / RFU FIZ1 (11724087_x_at) / Fold change /veh FIZ1 (11724087_x_at) / RFU OASL (11726364_x_at) / Fold change /veh OASL (11726364_x_at) / RFU SOX15 (11748057_x_at) / Fold change /veh SOX15 (11748057_x_at) / RFU CD79A (11719716_a_at) / Fold change /veh CD79A (11719716_a_at) / RFU HIST1H1D (11736915_at) / Fold change /veh HIST1H1D (11736915_at) / RFU CASKIN2 (11723855_a_at) / Fold change /veh CASKIN2 (11723855_a_at) / RFU LOC730098 (11760151_x_at) / Fold change /veh LOC730098 (11760151_x_at) / RFU OR4N2 (11742367_at) / Fold change /veh OR4N2 (11742367_at) / RFU PRRT2 (11749266_a_at) / Fold change /veh PRRT2 (11749266_a_at) / RFU SNX32 (11753110_a_at) / Fold change /veh SNX32 (11753110_a_at) / RFU CDHR5 (11726645_a_at) / Fold change /veh CDHR5 (11726645_a_at) / RFU RCAN1 (11760418_a_at) / Fold change /veh RCAN1 (11760418_a_at) / RFU FAM167A (11723789_a_at) / Fold change /veh FAM167A (11723789_a_at) / RFU FAM26E (11764081_at) / Fold change /veh FAM26E (11764081_at) / RFU ISYNA1 (11749810_s_at) / Fold change /veh ISYNA1 (11749810_s_at) / RFU ACY1 (11761880_at) / Fold change /veh ACY1 (11761880_at) / RFU 11764098_at / Fold change /veh 11764098_at / RFU SAMD14 (11745864_x_at) / Fold change /veh SAMD14 (11745864_x_at) / RFU NPB (11741838_a_at) / Fold change /veh NPB (11741838_a_at) / RFU TMPRSS6 (11731388_a_at) / Fold change /veh TMPRSS6 (11731388_a_at) / RFU KRTAP10-2 (11738614_at) / Fold change /veh KRTAP10-2 (11738614_at) / RFU ARHGAP8 /// PRR5-ARHGAP8 (11727945_x_at) / Fold change /veh ARHGAP8 /// PRR5-ARHGAP8 (11727945_x_at) / RFU KRTAP5-7 /// NADSYN1 (11734609_at) / Fold change /veh KRTAP5-7 /// NADSYN1 (11734609_at) / RFU RASL12 (11751679_a_at) / Fold change /veh RASL12 (11751679_a_at) / RFU CDKN2B (11736163_a_at) / Fold change /veh CDKN2B (11736163_a_at) / RFU PRF1 (11729649_at) / Fold change /veh PRF1 (11729649_at) / RFU, ZNF638 /// ZNF638-IT1 / Fold change vs veh, ZNF638 /// ZNF638-IT1 / RFU, PANK3 / Fold change vs veh, PANK3 / RFU, SH3YL1 / Fold change vs veh, SH3YL1 / RFU, ZEB2 / Fold change vs veh, ZEB2 / RFU, NRIP1 / Fold change vs veh, NRIP1 / RFU, PTTG1IP / Fold change vs veh, PTTG1IP / RFU, CAPN2 / Fold change vs veh, CAPN2 / RFU, MED14 / Fold change vs veh, MED14 / RFU, SNORA58 / Fold change vs veh, SNORA58 / RFU, C1orf63 / Fold change vs veh, C1orf63 / RFU, LRRFIP1 / Fold change vs veh, LRRFIP1 / RFU, NDUFAF7 / Fold change vs veh, NDUFAF7 / RFU, SLC12A2 / Fold change vs veh, SLC12A2 / RFU, IBTK / Fold change vs veh, IBTK / RFU, ESF1 / Fold change vs veh, ESF1 / Fold change vs veh, TMEM50B / RFU, TAOK1 / Fold change vs veh, TAOK1 / RFU, ACBD3 / Fold change vs veh, ACBD3 / RFU, TMA16 / Fold change vs veh, TMA16 / RFU, RWDD3 / Fold change vs veh, RWDD3 / RFU, BCAT1 / Fold change vs veh, BCAT1 / RFU, EDEM3 / Fold change vs veh, EDEM3 / RFU, TMEM33 / Fold change vs veh, TMEM33 / RFU, WDR75 / Fold change vs veh, WDR75 / RFU, AHCTF1 / Fold change vs veh, AHCTF1 / RFU, TFRC / Fold change vs veh, TFRC / RFU, ZDHHC17 / Fold change vs veh, ZDHHC17 / RFU, NOM1 / Fold change vs veh, NOM1 / RFU, ARL8B / Fold change vs veh, ARL8B / RFU, ZBTB11 / Fold change vs veh, ZBTB11 / RFU, TAMM41 / Fold change vs veh, TAMM41 / RFU, KIAA1704 /// LOC100996395 / Fold change vs veh, KIAA1704 /// LOC100996395 / RFU, ING1 / Fold change vs veh, ING1 / RFU, TRMT61B / Fold change vs veh, TRMT61B / RFU, FUBP3 / Fold change vs veh, FUBP3 / RFU, TP53 / Fold change vs veh, TP53 / RFU, TNKS2 / Fold change vs veh, TNKS2 / RFU, ZFP14 / Fold change vs veh, ZFP14 / RFU, ACTR2 / Fold change vs veh, ACTR2 / RFU, PPP3R1 / Fold change vs veh, PPP3R1 / RFU, PIK3R1 / Fold change vs veh, PIK3R1 / RFU, HNRNPA1 / Fold change vs veh, HNRNPA1 / RFU, RNF170 / Fold change vs veh, RNF170 / RFU, ZNF28 / Fold change vs veh, ZNF28 / RFU, RNGTT / Fold change vs veh, RNGTT / RFU, OGT / Fold change vs veh, OGT / RFU, BRD1 / Fold change vs veh, BRD1 / RFU, MARS / Fold change vs veh, MARS / RFU, ZNF655 / Fold change vs veh, ZNF655 / RFU, FAHD1 / Fold change vs veh, FAHD1 / RFU, BDP1 / Fold change vs veh, BDP1 / RFU, LRRCC1 / Fold change vs veh, LRRCC1 / RFU, ARID1A / Fold change vs veh, ARID1A / RFU, ZNF146 / Fold change vs veh, ZNF146 / RFU, ZNF330 / Fold change vs veh, ZNF330 / RFU, GPN3 / Fold change vs veh, GPN3 / RFU, C9orf123 / Fold change vs veh, C9orf123 / RFU, N4BP2L2 / Fold change vs veh, N4BP2L2 / RFU, ARFIP1 / Fold change vs veh, ARFIP1 / RFU, FAM179B / Fold change vs veh, FAM179B / RFU, BCL10 / Fold change vs veh, BCL10 / RFU, UHRF1BP1L / Fold change vs veh, UHRF1BP1L / RFU, BET1 / Fold change vs veh, BET1 / RFU, CNOT2 / Fold change vs veh, CNOT2 / RFU, ZNF268 / Fold change vs veh, ZNF268 / Fold change vs veh, ZNF507 / RFU, DGCR2 / Fold change vs veh, DGCR2 / RFU, WDSUB1 / Fold change vs veh, WDSUB1 / Fold change vs veh, HSP90B1 /// MIR3652 / RFU, ADSS / Fold change vs veh, ADSS / RFU, GK / Fold change vs veh, GK / RFU, ZNF148 / Fold change vs veh, ZNF148 / RFU, TAF9 / Fold change vs veh, TAF9 / RFU, SLC1A5 / Fold change vs veh, SLC1A5 / RFU, SLMO2 / Fold change vs veh, SLMO2 / RFU, ABCC4 / Fold change vs veh, ABCC4 / RFU, LOC101060439 /// RAP1B / Fold change vs veh, LOC101060439 /// RAP1B / RFU, RFX7 / Fold change vs veh, RFX7 / RFU, GTPBP10 / Fold change vs veh, GTPBP10 / RFU, CNEP1R1 / Fold change vs veh, CNEP1R1 / RFU, BIVM-ERCC5 /// ERCC5 / Fold change vs veh, BIVM-ERCC5 /// ERCC5 / RFU, ILF3 / Fold change vs veh, ILF3 / RFU 11762660_at / Fold change /veh 11762660_at / RFU VCAN (11757783_s_at) / Fold change /veh VCAN (11757783_s_at) / RFU DDX43 (11728927_at) / Fold change /veh DDX43 (11728927_at) / RFU KRT8 (11758188_x_at) / Fold change /veh KRT8 (11758188_x_at) / RFU NKD1 (11759106_at) / Fold change /veh NKD1 (11759106_at) / RFU SRD5A1 (11742802_a_at) / Fold change /veh SRD5A1 (11742802_a_at) / RFU TPSAB1 /// TPSB2 (11721975_s_at) / Fold change /veh TPSAB1 /// TPSB2 (11721975_s_at) / RFU GSTM3 (11746129_a_at) / Fold change /veh GSTM3 (11746129_a_at) / RFU IL23R (11737362_x_at) / Fold change /veh IL23R (11737362_x_at) / RFU TMEM51 (11727254_a_at) / Fold change /veh TMEM51 (11727254_a_at) / RFU PIWIL2 (11732686_x_at) / Fold change /veh PIWIL2 (11732686_x_at) / RFU ORM1 (11744905_x_at) / Fold change /veh ORM1 (11744905_x_at) / RFU CCDC152 (11743942_at) / Fold change /veh CCDC152 (11743942_at) / RFU ECM1 (11717891_a_at) / Fold change /veh ECM1 (11717891_a_at) / RFU IL23R (11748794_a_at) / Fold change /veh IL23R (11748794_a_at) / RFU TNFAIP8L3 (11732012_x_at) / Fold change /veh TNFAIP8L3 (11732012_x_at) / RFU MBOAT4 (11741988_at) / Fold change /veh MBOAT4 (11741988_at) / RFU 11764193_at / Fold change /veh 11764193_at / RFU TMEM53 (11763286_at) / Fold change /veh TMEM53 (11763286_at) / RFU MAGEB2 (11727129_at) / Fold change /veh MAGEB2 (11727129_at) / RFU TMEM200A (11744735_a_at) / Fold change /veh TMEM200A (11744735_a_at) / RFU CCDC152 (11751479_a_at) / Fold change /veh CCDC152 (11751479_a_at) / RFU FAM211A (11726209_a_at) / Fold change /veh FAM211A (11726209_a_at) / RFU RGS16 (11746705_a_at) / Fold change /veh RGS16 (11746705_a_at) / RFU VCAN (11755009_s_at) / Fold change /veh VCAN (11755009_s_at) / RFU RHOB (11743442_s_at) / Fold change /veh RHOB (11743442_s_at) / RFU RGS16 (11720943_a_at) / Fold change /veh RGS16 (11720943_a_at) / RFU RGS16 (11720944_at) / Fold change /veh RGS16 (11720944_at) / RFU, VPS4B / Fold change vs veh, VPS4B / RFU, CREB1 / Fold change vs veh, CREB1 / RFU, DNAJC13 / Fold change vs veh, DNAJC13 / RFU, GNAQ / Fold change vs veh, GNAQ / RFU, CDK5R1 / Fold change vs veh, CDK5R1 / RFU, ZRANB3 / Fold change vs veh, ZRANB3 / RFU, CUL4A / Fold change vs veh, CUL4A / RFU, CCNY / Fold change vs veh, CCNY / RFU, UFL1 / Fold change vs veh, UFL1 / RFU, COG3 / Fold change vs veh, COG3 / RFU, DIAPH2 / Fold change vs veh, DIAPH2 / RFU, SKA2 / Fold change vs veh, SKA2 / RFU, AFF3 / Fold change vs veh, AFF3 / RFU, LMF1 / Fold change vs veh, LMF1 / RFU, IPO11 / Fold change vs veh, IPO11 / RFU, DFFB / Fold change vs veh, DFFB / RFU, FOXP1 / Fold change vs veh, FOXP1 / RFU, CARD8 / Fold change vs veh, CARD8 / RFU, STRN3 / Fold change vs veh, STRN3 / RFU, ADK / Fold change vs veh, ADK / RFU, RASSF2 / Fold change vs veh, RASSF2 / RFU, WIPF1 / Fold change vs veh, WIPF1 / RFU, LARP1B / Fold change vs veh, LARP1B / RFU, RASA1 / Fold change vs veh, RASA1 / RFU, RB1 / Fold change vs veh, RB1 / RFU, PPFIA1 / Fold change vs veh, PPFIA1 / RFU, MAT2A / Fold change vs veh, MAT2A / RFU, CCT5 / Fold change vs veh, CCT5 / RFU, WDR92 / Fold change vs veh, WDR92 / RFU, CUX1 / Fold change vs veh, CUX1 / RFU, TTC7A / Fold change vs veh, TTC7A / RFU, TMEM135 / Fold change vs veh, TMEM135 / RFU, DEPTOR / Fold change vs veh, DEPTOR / RFU, CPM / Fold change vs veh, CPM / RFU, DNAJB6 / Fold change vs veh, DNAJB6 / RFU, CACNA2D3 / Fold change vs veh, CACNA2D3 / RFU, DTX4 / Fold change vs veh, DTX4 / RFU, TFCP2 / Fold change vs veh, TFCP2 / RFU, GMCL1 /// GMCL1P1 / Fold change vs veh, GMCL1 /// GMCL1P1 / RFU, AEBP2 / Fold change vs veh, AEBP2 / RFU, SNHG1 /// SNORD22 /// SNORD25 /// SNORD26 /// SNORD27 /// SNORD28 /// SNORD29 /// SNORD31 / Fold change vs veh, SNHG1 /// SNORD22 /// SNORD25 /// SNORD26 /// SNORD27 /// SNORD28 /// SNORD29 /// SNORD31 / Fold change (Aza/veh), C12orf56 (ProbeSet 11735607_a_at) / Fold change (ACY-1035/veh), C12orf56 (ProbeSet 11735607_a_at) / Fold change (Aza/veh), FGFR1OP (ProbeSet 11751329_s_at) / Fold change (ACY-1035/veh), FGFR1OP (ProbeSet 11751329_s_at) / Fold change (Aza/veh), VPS36 (ProbeSet 11739960_a_at) / Fold change (ACY-1035/veh), VPS36 (ProbeSet 11739960_a_at) / RFU SYPL1 (11715823_x_at) / Fold change /veh SYPL1 (11715823_x_at) / RFU IGFBP7 (11715501_s_at) / Fold change /veh IGFBP7 (11715501_s_at) / RFU REEP3 (11722064_at) / Fold change /veh REEP3 (11722064_at) / RFU IGLL1 (11728026_x_at) / Fold change /veh IGLL1 (11728026_x_at): dose or concentration left out as unconfirmed
Conditions: MV-4-11 cells, 48 hours

Nc1ncn([C@@H]2O[C@H](CO)[C@@H](O)[C@H]2O)c(=O)n1 [azacitidine]
Fold change /veh CYB561 (11721691_x_at): 1.09
